Conditions: Fluid (supercritical or subcritical phases)

CC(F)(F)CC(F)(F)F [1,1,1,3,3-pentafluorobutane]
Conditions	speed of sound [m/s]
250 K, 1105.2 kPa	921.65
250 K, 2105.8 kPa	926.73
250 K, 3106.3 kPa	931.74
250 K, 4106.9 kPa	936.7
250 K, 5107.4 kPa	941.59
250 K, 6108.3 kPa	946.43
250 K, 7108.9 kPa	951.22
250 K, 8108.1 kPa	955.95
250 K, 9108.8 kPa	960.64
250 K, 10110 kPa	965.28
250 K, 12611 kPa	976.67
250 K, 15113 kPa	987.78
250 K, 17614 kPa	998.62
250 K, 20116 kPa	1009.2
250 K, 25120 kPa	1029.8
250 K, 30123 kPa	1049.5
250 K, 35127 kPa	1068.4
250 K, 40130 kPa	1086.7
250 K, 45133 kPa	1104.4
250 K, 50137 kPa	1121.5
260 K, 1104.3 kPa	881.57
260 K, 2104.8 kPa	886.96
260 K, 3105.3 kPa	892.27
260 K, 4105.9 kPa	897.52
260 K, 5106.3 kPa	902.7
260 K, 6107.9 kPa	907.82
260 K, 7109.2 kPa	912.89
260 K, 8109.9 kPa	917.88
260 K, 9110.7 kPa	922.82
260 K, 10112 kPa	927.71
260 K, 12613 kPa	939.68
260 K, 15115 kPa	951.34
260 K, 17617 kPa	962.7
260 K, 20118 kPa	973.79
260 K, 25122 kPa	995.21
260 K, 30126 kPa	1015.7
260 K, 35129 kPa	1035.4
260 K, 40133 kPa	1054.3
260 K, 45136 kPa	1072.6
260 K, 50140 kPa	1090.3
260 K, 60146 kPa	1124.1
260 K, 70153 kPa	1155.9
260 K, 80160 kPa	1186.1
260 K, 90167 kPa	1214.9
260 K, 100174 kPa	1242.4
280 K, 1104.4 kPa	803.31
280 K, 2104.9 kPa	809.41
280 K, 3105.4 kPa	815.42
280 K, 4106 kPa	821.34
280 K, 5106.6 kPa	827.16
280 K, 6107.8 kPa	832.89
280 K, 7108.5 kPa	838.55
280 K, 8109.3 kPa	844.12
280 K, 9110.2 kPa	849.62
280 K, 10111 kPa	855.04
280 K, 12613 kPa	868.29
280 K, 15114 kPa	881.13
280 K, 17616 kPa	893.6
280 K, 20118 kPa	905.71
280 K, 25121 kPa	929
280 K, 30124 kPa	951.17
280 K, 35128 kPa	972.34
280 K, 40131 kPa	992.62
280 K, 45135 kPa	1012.1
280 K, 50138 kPa	1030.9
280 K, 60145 kPa	1066.6
280 K, 70152 kPa	1100.2
280 K, 80159 kPa	1131.9
280 K, 90166 kPa	1162
280 K, 100172 kPa	1190.6
300 K, 1104.5 kPa	727.1
300 K, 2105 kPa	734.06
300 K, 3105.5 kPa	740.9
300 K, 4106 kPa	747.61
300 K, 5107 kPa	754.19
300 K, 6107.6 kPa	760.65
300 K, 7107.1 kPa	766.96
300 K, 8107.8 kPa	773.21
300 K, 9108.4 kPa	779.34
300 K, 10110 kPa	785.37
300 K, 12612 kPa	800.06
300 K, 15114 kPa	814.23
300 K, 17616 kPa	827.91
300 K, 20117 kPa	841.15
300 K, 25121 kPa	866.44
300 K, 30125 kPa	890.34
300 K, 35129 kPa	913.06
300 K, 40132 kPa	934.74
300 K, 45136 kPa	955.48
300 K, 50139 kPa	975.38
300 K, 60146 kPa	1013.1
300 K, 70153 kPa	1048.3
300 K, 80160 kPa	1081.4
300 K, 90167 kPa	1112.7
300 K, 100174 kPa	1142.5
319.99 K, 2104.9 kPa	660.37
319.99 K, 3105.5 kPa	668.24
319.99 K, 4106.3 kPa	675.92
319.99 K, 5107.7 kPa	683.41
319.99 K, 6108.6 kPa	690.74
319.99 K, 7109.3 kPa	697.91
319.99 K, 8110 kPa	704.93
320 K, 9111.2 kPa	711.77
320 K, 10112 kPa	718.52
320 K, 12614 kPa	734.86
320 K, 15115 kPa	750.5
320 K, 17617 kPa	765.53
320 K, 20119 kPa	779.98
320 K, 25123 kPa	807.44
320 K, 30126 kPa	833.19
320 K, 35130 kPa	857.51
320 K, 40134 kPa	880.59
320 K, 45137 kPa	902.59
320 K, 50141 kPa	923.63
320 K, 60148 kPa	963.25
320 K, 70155 kPa	1000.1
320 K, 80162 kPa	1034.6
320 K, 90169 kPa	1067.1
320 K, 100176 kPa	1098
320.01 K, 1103.1 kPa	652.28
340 K, 1105.8 kPa	578.15
340 K, 2106.4 kPa	587.65
340 K, 3107 kPa	596.83
340 K, 4107.5 kPa	605.73
340 K, 5108.1 kPa	614.36
340 K, 6109.1 kPa	622.75
340 K, 7109.7 kPa	630.92
340 K, 8108.9 kPa	638.86
340 K, 9109.4 kPa	646.62
340 K, 10110 kPa	654.2
340 K, 12611 kPa	672.43
340 K, 15113 kPa	689.74
340 K, 17614 kPa	706.24
340 K, 20116 kPa	722.03
340 K, 25119 kPa	751.78
340 K, 30122 kPa	779.47
340 K, 35124 kPa	805.42
340 K, 40128 kPa	829.93
340 K, 45131 kPa	853.19
340 K, 50135 kPa	875.34
340 K, 60142 kPa	916.86
340 K, 70150 kPa	955.26
340 K, 80157 kPa	991.12
340 K, 90164 kPa	1024.8
340 K, 100171 kPa	1056.7
360 K, 1102.1 kPa	503.74
360 K, 2102.7 kPa	515.2
360 K, 3103.3 kPa	526.14
360 K, 4104 kPa	536.64
360 K, 5104.8 kPa	546.73
360 K, 6106.2 kPa	556.45
360 K, 7106.9 kPa	565.84
360 K, 8107.7 kPa	574.94
360 K, 9108.4 kPa	583.75
360 K, 10109 kPa	592.32
360 K, 12611 kPa	612.74
360 K, 15113 kPa	631.92
360 K, 17615 kPa	650.07
360 K, 20117 kPa	667.31
360 K, 25120 kPa	699.5
360 K, 30124 kPa	729.19
360 K, 35127 kPa	756.83
360 K, 40130 kPa	782.78
360 K, 45134 kPa	807.28
360 K, 50137 kPa	830.52
360 K, 60144 kPa	873.89
360 K, 70151 kPa	913.8
360 K, 80158 kPa	950.91
360 K, 90165 kPa	985.68
360 K, 100172 kPa	1018.5
379.99 K, 1100.8 kPa	427.28
379.99 K, 2101.7 kPa	441.66
379.99 K, 3102.1 kPa	455.12
379.99 K, 4102.7 kPa	467.8
379.99 K, 5103.4 kPa	479.82
379.99 K, 6104.7 kPa	491.27
379.99 K, 7105.5 kPa	502.21
379.99 K, 8106.3 kPa	512.71
379.99 K, 9107.5 kPa	522.81
379.99 K, 10108 kPa	532.54
379.99 K, 12610 kPa	555.5
379.99 K, 15112 kPa	576.81
379.99 K, 17614 kPa	596.76
379.99 K, 20116 kPa	615.56
379.99 K, 25119 kPa	650.34
379.99 K, 30123 kPa	682.08
379.99 K, 35126 kPa	711.42
379.99 K, 40130 kPa	738.79
379.99 K, 45134 kPa	764.51
379.99 K, 50137 kPa	788.83
379.99 K, 60144 kPa	833.97
379.99 K, 70151 kPa	875.31
379.99 K, 80158 kPa	913.6
379.99 K, 90166 kPa	949.39
379.99 K, 100173 kPa	983.05
400 K, 1605.2 kPa	355.52
400 K, 2105.7 kPa	364.94
400 K, 3106.4 kPa	382.38
400 K, 4107.2 kPa	398.31
400 K, 5108.1 kPa	413.05
400 K, 6107.8 kPa	426.8
400 K, 7108.6 kPa	439.76
400 K, 8109.4 kPa	452.03
400 K, 9110.2 kPa	463.7
400 K, 10111 kPa	474.85
400 K, 12613 kPa	500.78
400 K, 15114 kPa	524.48
400 K, 17616 kPa	546.39
400 K, 20118 kPa	566.86
400 K, 25122 kPa	604.31
400 K, 30125 kPa	638.14
400 K, 35128 kPa	669.16
400 K, 40132 kPa	697.92
400 K, 45135 kPa	724.83
400 K, 50138 kPa	750.16
400 K, 60145 kPa	796.98
400 K, 70152 kPa	839.66
400 K, 80159 kPa	879.05
400 K, 90166 kPa	915.76
400 K, 100174 kPa	950.23
419.99 K, 2103.3 kPa	280.02
419.99 K, 3102.8 kPa	305.08
419.99 K, 4103.6 kPa	326.49
419.99 K, 5104.3 kPa	345.41
419.99 K, 6105 kPa	362.51
419.99 K, 7105.6 kPa	378.2
419.99 K, 8106.4 kPa	392.76
419.99 K, 9107.1 kPa	406.4
419.99 K, 10108 kPa	419.26

Source: the NIST ThermoML archive (doi:10.1021/je301164d)
